Experimental data reported in patent US10898469B2, “Imidazolylamide derivative” (Sumitomo Dainippon Pharma Co., Ltd., priority 2016, dated 2021).
pIC50: −log10 of the molar value. Counter-ions that a name gives are not always drawn. Like-named read-outs stand apart in the source and are kept apart here.

Columns and labels:
Type in all cases: cell-based, human
[1] = tested on: HCT-116 cells; test: Inhibition test for sphere-forming ability of cancer cells (Test Example 1), HCT-116; settings: for pIC50 / (100%-inhibition rate of cell proliferation) at 1 μmol/L, HCT-116: HCT-116 cells; for pIC50: concentration for 50% inhibition of cell proliferation, read-out: IC50 (μmol/L) HCT-116 (Sphere IC50 value); for inhibitory effect on the sphere-forming ability of cancer cells: Test Example 1, summary in words, cell line not given (HCT-116, HT-29, FaDu tested); for (100%-inhibition rate of cell proliferation) at 1 μmol/L, HCT-116: value with %
Text: (§1) The reliable methods established for measuring the self-renewal ability of cells which is one of the CSC's properties include a method for measuring the sphere-forming ability of cancer cells in non-adherent condition in the absence of serum (Cancer Res 65, 5506-5511 (2005)). Human colorectal cancer-derived HCT-116 cells, human colon-adenocarcinoma-derived HT-29 cells, and human pharyngeal cancer-derived FaDu cells were available from American Type Culture Collection (ATCC). HCT-116 cells and HT-29 cells were cultured at 37° C. under 5% CO2 using the McCoy's 5a medium containing 10% fetal bovine serum (FBS) and 1% penicillin/streptomycin, and FaDu cells were cultured at 37° C. under 5% CO2 using the MEM medium containing 10% FBS, 1% non-essential amino acid, 1% sodium pyruvate, and 1% penicillin/streptomycin. HCT-116 cells, HT-29 cells, and FaDu cells were seeded in a 384 Well Black Clear Bottom Ultra-Low Attachment Microplate (Corning Cat. No. 3827) in an amount of 350-800 cells/well using the DMEM/F12 medium containing 2% B27 supplement (GIBCO), 20 ng/mL epidermal growth factor (EGF) (peprotech), 10 ng/mL basic fibroblast growth factor (bFGF) (peprotech), 5 μg/mL insulin (Sigma), and 1% penicillin/streptomycin. Each test compound was added into each well to adjust the final concentration of DMSO to 0.1%, and the cells were cultured for 4 days. The number of viable cells in each well was then measured with CellTiter-Glo® Luminescent Cell Viability Assay (Promega) to calculate the concentration of each test compound for 50% inhibition of cell proliferation (Sphere IC50 value; μmol/L).
(§2) The experiment of Test Example 1 was performed for each compound of each Example. The concentration of each test compound for 50% inhibition of cell proliferation (Sphere IC50 value; μmol/L) is shown in the following Table.

[2] = tested on: HT-29 cells; test: Inhibition test for sphere-forming ability of cancer cells (Test Example 1), HT-29; settings: for pIC50: concentration for 50% inhibition of cell proliferation, read-out: IC50 (μmol/L) HT-29 (Sphere IC50 value); for (100%-inhibition rate of cell proliferation) at 1 μmol/L, HT-29: value with %
Text: as §1, §2

[3] = tested on: FaDu cells; test: Inhibition test for sphere-forming ability of cancer cells (Test Example 1), FaDu; settings: for pIC50: concentration for 50% inhibition of cell proliferation, read-out: IC50 (μmol/L) FaDu (Sphere IC50 value); for (100%-inhibition rate of cell proliferation) at 1 μmol/L, FaDu: value with %
Text: as §1, §2

Row | Compound | pIC50 [1] | pIC50 [2] | pIC50 [3] | further results
1 | O=C(/C=C/c1cccc(F)c1)Nc1cn(Cc2cccc(Cl)c2)cn1 [Example 57] | 6.03 | 5.48 | 5.36 | –
2 | O=C(/C=C/c1ccccc1C(F)(F)F)Nc1cn(Cc2cccc(Cl)c2)cn1 [Example 55] | 6.02 | 5.92 | 5.42 | –
3 | CCOc1ccc(C(=O)Nc2cn(Cc3c(F)ccc(C)c3F)cn2)cn1 [Example 221] | 6.29 | 6.23 | 6.05 | –
4 | O=C(/C=C/c1ccsc1)Nc1cn(Cc2cccc(Cl)c2)cn1 [Example 119] | – | – | – | pIC50 ([1]; Homo sapiens): 6.17; pIC50 ([2]; Homo sapiens): 6.80; pIC50 ([3]; Homo sapiens): 6.25
5 | O=C(/C=C/c1ccc2ccccc2c1)Nc1cn(Cc2cccc(Cl)c2)cn1 [Example 95] | < 5.00 | 5.49 | 6.00 | –
6 | CCCCNC(=O)c1ccc(/C=C/C(=O)Nc2cn(Cc3cccc(Cl)c3)cn2)cn1 [Example 27] | – | – | – | pIC50 ([1]; Homo sapiens): < 5.00; pIC50 ([2]; Homo sapiens): 5.47; pIC50 ([3]; Homo sapiens): 5.23
7 | Cc1ccncc1/C=C/C(=O)Nc1cn(Cc2cccc(Cl)c2)cn1 [Example 91] | 5.12 | 5.35 | 5.21 | –
8 | CCOc1ccc(C(=O)Nc2cn(Cc3cccc(OC(F)(F)F)c3)cn2)cn1 [Example 213] | 6.09 | 6.19 | 6.10 | –
9 | O=C(Nc1cn(Cc2cccc(Cl)c2)cn1)c1ccc(OCc2ccccc2)nc1 [Example 206] | 6.16 | 7.05 | 7.05 | inhibitory effect on the sphere-forming ability of cancer cells [1]: particularly potent inhibitory effect
10 | COc1ccc(/C=C/C(=O)Nc2cn(Cc3cccc(Cl)c3)cn2)cc1OCC(N)=O [Example 30] | – | – | – | pIC50 ([1]; Homo sapiens): < 5.00; pIC50 ([2]; Homo sapiens): < 5.00; pIC50 ([3]; Homo sapiens): 6.15
11 | Cn1cc(/C=C/C(=O)Nc2cn(Cc3cccc(Cl)c3)cn2)ccc1=O [Example 12] | – | – | – | pIC50 ([1]; Homo sapiens): 5.12; pIC50 ([2]; Homo sapiens): 6.04; pIC50 ([3]; Homo sapiens): 5.84
12 | COc1ccc(C(=O)Nc2cn(Cc3cccc(OC(F)(F)F)c3)cn2)cn1 [Example 212] | 6.11 | 6.00 | 6.08 | –
13 | O=C(/C=C/c1ccccc1Cl)Nc1cn(Cc2cccc(Cl)c2)cn1 [Example 51] | 5.14 | 5.43 | 5.21 | –
14 | CCOc1ccc(/C=C/C(=O)Nc2cn(Cc3cccc(Cl)c3)cn2)cc1 [Example 74] | 7.30 | > 8.00 | > 8.00 | inhibitory effect on the sphere-forming ability of cancer cells [1]: particularly potent inhibitory effect
15 | CCOc1cccc(/C=C/C(=O)Nc2cn(Cc3cccc(Cl)c3)cn2)c1 [Example 64] | 5.01 | 6.16 | 6.23 | –
16 | O=C(/C=C/c1cccc(O)c1)Nc1cn(Cc2cccc(Cl)c2)cn1 [Example 65] | 6.02 | 5.58 | 7.22 | inhibitory effect on the sphere-forming ability of cancer cells [1]: particularly potent inhibitory effect
17 | Cc1cccc(/C=C/C(=O)Nc2cn(Cc3cccc(C(F)(F)F)c3)cn2)c1 [Example 105] | – | – | – | pIC50 ([1]; Homo sapiens): 5.30; pIC50 ([2]; Homo sapiens): 6.03; pIC50 ([3]; Homo sapiens): 6.07
18 | O=C(/C=C/c1cccc(Oc2ccccc2)c1)Nc1cn(Cc2cccc(C(F)(F)F)c2)cn1 [Example 104] | – | – | – | pIC50 ([1]; Homo sapiens): 5.68; pIC50 ([2]; Homo sapiens): 6.10; pIC50 ([3]; Homo sapiens): 5.57
19 | COc1ccc(Cn2cnc(NC(=O)c3ccc(OC)c(OC)c3)c2)cc1 [Example 164] | – | – | – | (100%-inhibition rate of cell proliferation) at 1 μmol/L, HCT-116 [1]: 37.4%; (100%-inhibition rate of cell proliferation) at 1 μmol/L, HT-29 [2]: 89.0%; (100%-inhibition rate of cell proliferation) at 1 μmol/L, FaDu [3]: 92.3%
20 | CCOc1ccc(C(=O)Nc2cn(Cc3cccc(Cl)c3)cn2)cn1 [Example 203] | 6.05 | 6.15 | 6.05 | –
21 | Nc1ccc(/C=C/C(=O)Nc2cn(Cc3cccc(Cl)c3)cn2)cc1 [Example 3, (E)-3-(4-Aminophenyl)-N-(1-(3-chlorobenzyl)-1H-imidazol-4-yl)acrylamide Dihydrochloride] | – | – | – | pIC50 ([1]; Homo sapiens): 5.17; pIC50 ([2]; Homo sapiens): 5.45; pIC50 ([3]; Homo sapiens): 5.50
22 | COc1ccc(C(=O)Nc2cn(Cc3ccc(C(F)(F)F)cc3)cn2)cc1OC [Example 287] | – | – | – | (100%-inhibition rate of cell proliferation) at 1 μmol/L, HCT-116 [1]: 95.8%; (100%-inhibition rate of cell proliferation) at 1 μmol/L, HT-29 [2]: 124%; (100%-inhibition rate of cell proliferation) at 1 μmol/L, FaDu [3]: 53.0%

Row | Compound | pIC50 [1] | pIC50 [2] | pIC50 [3] | further results
23 | O=C(/C=C/c1ccncc1)Nc1cn(Cc2cccc(Cl)c2)cn1 [Example 97] | 7.10 | 7.30 | 7.22 | inhibitory effect on the sphere-forming ability of cancer cells [1]: particularly potent inhibitory effect
24 | COc1ccc(C(=O)Nc2cn(Cc3cccc(OCc4ccccc4)c3)cn2)cc1OC [Example 169] | – | – | – | (100%-inhibition rate of cell proliferation) at 1 μmol/L, HCT-116 [1]: 50.9%; (100%-inhibition rate of cell proliferation) at 1 μmol/L, HT-29 [2]: 35.4%; (100%-inhibition rate of cell proliferation) at 1 μmol/L, FaDu [3]: 68.6%
25 | Cc1ccc(F)c(Cn2cnc(NC(=O)/C=C/c3cccnc3)c2)c1F [Example 113] | – | – | – | pIC50 ([1]; Homo sapiens): 6.27; pIC50 ([2]; Homo sapiens): 6.28; pIC50 ([3]; Homo sapiens): < 5.00
26 | O=C(/C=C/c1ccccc1O)Nc1cn(Cc2cccc(Cl)c2)cn1 [Example 54] | 5.08 | 5.09 | 6.09 | –
27 | Cc1ccc(C(=O)Nc2cn(Cc3cccc(Cl)c3)cn2)cn1 [Example 198] | – | – | – | (100%-inhibition rate of cell proliferation) at 1 μmol/L, HCT-116 [1]: 55.3%; (100%-inhibition rate of cell proliferation) at 1 μmol/L, HT-29 [2]: 99.8%; (100%-inhibition rate of cell proliferation) at 1 μmol/L, FaDu [3]: 64.5%
28 | O=C(Nc1cc(-c2ccccc2)n[nH]1)c1cn(Cc2cccc(Cl)c2)cn1 [Example 259] | 6.04 | 6.13 | 6.13 | –
29 | CN(C)c1ccc(/C=C/C(=O)Nc2cn(Cc3cccc(Cl)c3)cn2)cc1 [Example 63] | 6.28 | 7.15 | 7.10 | –
30 | O=C(/C=C/c1ccc(O)cc1)Nc1cn(Cc2cccc(Cl)c2)cn1 [Example 84] | 6.23 | 6.28 | 6.17 | –
31 | O=C(Nc1cn(Cc2cccc(Cl)c2)cn1)c1ccc(-n2cccn2)nc1 [Example 196] | 6.12 | 5.42 | 6.05 | –
32 | COCCCOc1ccc(C(=O)Nc2cn(Cc3cccc(Cl)c3)cn2)cn1 [Example 204] | 5.34 | 6.14 | 6.07 | –
33 | COc1cc(/C=C/C(=O)Nc2cn(Cc3cccc(Cl)c3)cn2)cc(OC)c1O [Example 67] | 5.13 | 5.08 | 6.10 | –
34 | Cc1ccc(F)c(Cn2cnc(NC(=O)c3ccc(OCC(F)(F)F)nc3)c2)c1F [Example 223] | 6.12 | 6.19 | 6.09 | –
35 | CS(=O)(=O)c1ccc(/C=C/C(=O)Nc2cn(Cc3cccc(Cl)c3)cn2)cc1 [Example 13] | – | – | – | pIC50 ([1]; Homo sapiens): 5.06; pIC50 ([2]; Homo sapiens): 6.13; pIC50 ([3]; Homo sapiens): 5.55
36 | O=C(/C=C/c1ccc(O)c(F)c1)Nc1cn(Cc2cccc(Cl)c2)cn1 [Example 81] | 5.42 | 5.21 | 6.12 | –
37 | COc1ccc(C(=O)Nc2cn(Cc3cccc(Cl)c3)cn2)cn1 [Example 202] | 6.02 | 5.25 | 5.16 | –
38 | O=C(/C=C/c1cccc(C(F)(F)F)c1)Nc1cn(Cc2cccc(Cl)c2)cn1 [Example 60] | < 5.00 | 5.01 | 5.09 | –
39 | O=C(/C=C/c1ccc(F)cc1F)Nc1cn(Cc2cccc(Cl)c2)cn1 [Example 69] | 6.09 | 6.42 | 6.27 | –
40 | COc1ccc(C(=O)Nc2cn(Cc3ccc(C)c(Cl)c3)cn2)cc1OC [Example 295] | – | – | – | (100%-inhibition rate of cell proliferation) at 1 μmol/L, HCT-116 [1]: 83.0%; (100%-inhibition rate of cell proliferation) at 1 μmol/L, HT-29 [2]: 37.8%; (100%-inhibition rate of cell proliferation) at 1 μmol/L, FaDu [3]: 31.8%
41 | O=C(/C=C/c1cccs1)Nc1cn(Cc2cccc(Cl)c2)cn1 [Example 94] | 5.10 | 6.01 | 5.34 | –
42 | COc1cc(/C=C/C(=O)Nc2cn(Cc3cccc(Cl)c3)cn2)c([N+](=O)[O-])cc1OC [Example 75] | 5.12 | 5.19 | 5.14 | –
43 | COc1ccc(C(=O)Nc2cn(Cc3ccc(Cl)s3)cn2)cc1OC [Example 173] | – | – | – | (100%-inhibition rate of cell proliferation) at 1 μmol/L, HCT-116 [1]: 29.5%; (100%-inhibition rate of cell proliferation) at 1 μmol/L, HT-29 [2]: 21.6%; (100%-inhibition rate of cell proliferation) at 1 μmol/L, FaDu [3]: 21.4%
44 | O=C(Nc1cn(Cc2cccc(Cl)c2)cn1)c1ccc(OCC(F)(F)F)nc1 [Example 219] | 6.04 | 5.08 | 5.03 | –
